Measurements: article PMC3548936 (ACS chemical biology, 2012)

Tests used:
[1] = test system: VSV-G pseudotyped HIV particles (WT); assay: microbe, parasite or virus in culture; format: cell-based, HIV-1; details: Human immunodeficiency virus 1, HOS, read-out: Antiviral IC50 ± SD (EC50), WT
[2] = test system: VSV-G pseudotyped HIV particles (IN Y143R); format: cell-based, HIV-1; details: read-out: Antiviral IC50 ± SD (EC50), Y143R
[3] = in vitro; details: human

Compound: Cc1nnc(C(=O)NC(C)(C)c2nc(C(=O)NCc3ccc(F)cc3)c(O)c(=O)n2C)o1 [RAL, raltegravir]
- EC50 [1]: 4 ± 2 nM
- EC50 [2]: 210 ± 10 nM
- CC50 [3]: > 100000 nM
